Laboratory results reported in PubChem BioAssay AID2060499 (Molecular Pharmacology Branch, DTP, NCI, 2025).

System: 777334-354-R2-J4-PDC tumor spheroids with HUVEC/MSC, viability
Test: Anticancer human tumor 777334-354-R2-J4-PDC patient-derived pancreatic adenocarcinoma cell line growth inhibition [GQUAD]
Settings: for IC50: curve of first compound; for viability, T/C: stronger effect = lower value; active = viability on the fitted dose curve at most 10% of control; inactive = the rest
In short: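 Multi-cell-type spheroids of tumor cells with HUVEC and mesenchymal stem cells, treated with drug combinations. Concentrations descend in half-log steps from near clinical Cmax, or from 10 microM where Cmax is unknown; viability read-out.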

[1] = second compound 0.0316 µM, first compound 0.000999 µM
[2] = second compound 0.0316 µM, first compound 0.00316 µM
[3] = second compound 0.0316 µM, first compound 0.00999 µM
[4] = second compound 0.0316 µM, first compound 0.0316 µM
[5] = second compound 0.0316 µM, first compound 0.0999 µM
[6] = second compound 0.0316 µM, first compound 0.316 µM
[7] = second compound 0.1 µM, first compound 0.000999 µM
[8] = second compound 0.1 µM, first compound 0.00316 µM
[9] = second compound 0.1 µM, first compound 0.00999 µM
[10] = second compound 0.1 µM, first compound 0.0316 µM
[11] = second compound 0.1 µM, first compound 0.0999 µM
[12] = second compound 0.1 µM, first compound 0.316 µM
[13] = second compound 0.316 µM, first compound 0.000999 µM
[14] = second compound 0.316 µM, first compound 0.00316 µM
[15] = second compound 0.316 µM, first compound 0.00999 µM
[16] = second compound 0.316 µM, first compound 0.0316 µM
[17] = second compound 0.316 µM, first compound 0.0999 µM
[18] = second compound 0.316 µM, first compound 0.316 µM
[19] = second compound 1 µM, first compound 0.000999 µM
[20] = second compound 1 µM, first compound 0.00316 µM
[21] = second compound 1 µM, first compound 0.00999 µM
[22] = second compound 1 µM, first compound 0.0316 µM
[23] = second compound 1 µM, first compound 0.0999 µM
[24] = second compound 1 µM, first compound 0.316 µM
[25] = second compound 3.16 µM, first compound 0.000999 µM
[26] = second compound 3.16 µM, first compound 0.00316 µM
[27] = second compound 3.16 µM, first compound 0.00999 µM
[28] = second compound 3.16 µM, first compound 0.0316 µM
[29] = second compound 3.16 µM, first compound 0.0999 µM
[30] = second compound 3.16 µM, first compound 0.316 µM
[31] = second compound 10 µM, first compound 0.000999 µM
[32] = second compound 10 µM, first compound 0.00316 µM
[33] = second compound 10 µM, first compound 0.00999 µM
[34] = second compound 10 µM, first compound 0.0316 µM
[35] = second compound 10 µM, first compound 0.0999 µM
[36] = second compound 10 µM, first compound 0.316 µM
[37] = second compound 0.0316 µM, first compound 0.1 µM
[38] = second compound 0.0316 µM, first compound 1 µM
[39] = second compound 0.0316 µM, first compound 3.16 µM
[40] = second compound 0.0316 µM, first compound 10 µM
[41] = second compound 0.1 µM, first compound 0.1 µM
[42] = second compound 0.1 µM, first compound 1 µM
[43] = second compound 0.1 µM, first compound 3.16 µM
[44] = second compound 0.1 µM, first compound 10 µM
[45] = second compound 0.316 µM, first compound 0.1 µM
[46] = second compound 0.316 µM, first compound 1 µM
[47] = second compound 0.316 µM, first compound 3.16 µM
[48] = second compound 0.316 µM, first compound 10 µM
[49] = second compound 1 µM, first compound 0.1 µM
[50] = second compound 1 µM, first compound 1 µM
[51] = second compound 1 µM, first compound 3.16 µM
[52] = second compound 1 µM, first compound 10 µM
[53] = second compound 3.16 µM, first compound 0.1 µM
[54] = second compound 3.16 µM, first compound 1 µM
[55] = second compound 3.16 µM, first compound 3.16 µM
[56] = second compound 3.16 µM, first compound 10 µM
[57] = second compound 10 µM, first compound 0.1 µM
[58] = second compound 10 µM, first compound 1 µM
[59] = second compound 10 µM, first compound 3.16 µM
[60] = second compound 10 µM, first compound 10 µM
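Note: spheroids exposed to compounds for 7 days before readout.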

CC[C@@]1(O)C(=O)OCc2c1cc1n(c2=O)Cc2cc3c(CN(C)C)c(O)ccc3nc2-1 + Cc1cnc(CNC(=O)c2c(=O)c3ccc(N4CCCN(C)CC4)nc3n3c2sc2ccccc23)cn1
241 nM: IC50 (second compound 0.1 µM)
233 nM: IC50 (second compound 1 µM)
172 nM: IC50 (second compound 0.0316 µM)
222 nM: IC50 (second compound 0.316 µM)
225 nM: IC50 (second compound 3.16 µM)
78.7 nM: IC50 (second compound 10 µM)
inactive: viability, T/C [1] 90.1% | viability, T/C [2] 79.8% | viability, T/C [3] 95.2% | viability, T/C [4] 80.7% | viability, T/C [5] 59.4% | viability, T/C [6] 39.7% | viability, T/C [7] 102% | viability, T/C [8] 74.7% | viability, T/C [9] 83.1% | viability, T/C [10] 66.8% | viability, T/C [11] 60.8% | viability, T/C [12] 45% | viability, T/C [13] 73.8% | viability, T/C [14] 76.3% | viability, T/C [15] 76.7% | viability, T/C [16] 70.1% | viability, T/C [17] 59.3% | viability, T/C [18] 46% | viability, T/C [19] 64.7% | viability, T/C [20] 74.8% | viability, T/C [21] 76% | viability, T/C [22] 69.5% | viability, T/C [23] 57% | viability, T/C [24] 47% | viability, T/C [25] 56.8% | viability, T/C [26] 67.7% | viability, T/C [27] 62.2% | viability, T/C [28] 63.3% | viability, T/C [29] 54.9% | viability, T/C [30] 47.4% | viability, T/C [31] 56.1% | viability, T/C [32] 57.9% | viability, T/C [33] 60.2% | viability, T/C [34] 53.2% | viability, T/C [35] 47.8% | viability, T/C [36] 38.9%

CCc1c2c(nc3ccc(O)cc13)-c1cc3c(c(=O)n1C2)COC(=O)[C@]3(O)CC + Cc1cnc(CNC(=O)c2c(=O)c3ccc(N4CCCN(C)CC4)nc3n3c2sc2ccccc23)cn1
1.2 nM: IC50 (second compound 3.16 µM)
inactive: viability, T/C [1] 84.8% | viability, T/C [2] 49.6% | viability, T/C [3] 39.5% | viability, T/C [4] 25.7% | viability, T/C [5] 13.8% | viability, T/C [7] 84.4% | viability, T/C [8] 54.1% | viability, T/C [9] 38.1% | viability, T/C [10] 23.2% | viability, T/C [11] 17.4% | viability, T/C [12] 10.6% | viability, T/C [13] 63.6% | viability, T/C [14] 54.1% | viability, T/C [15] 37.1% | viability, T/C [16] 29% | viability, T/C [17] 19.1% | viability, T/C [18] 10.3% | viability, T/C [19] 56% | viability, T/C [20] 56.8% | viability, T/C [21] 40.6% | viability, T/C [22] 32.1% | viability, T/C [23] 16.7% | viability, T/C [25] 49.5% | viability, T/C [26] 49.4% | viability, T/C [27] 40.1% | viability, T/C [28] 28.4% | viability, T/C [29] 13.8% | viability, T/C [31] 57.5% | viability, T/C [32] 40.6% | viability, T/C [33] 33.6% | viability, T/C [34] 27.9%
4.38 nM: IC50 (second compound 0.0316 µM)
1.84 nM: IC50 (second compound 10 µM)
4.44 nM: IC50 (second compound 0.1 µM)
3.86 nM: IC50 (second compound 0.316 µM)
4.62 nM: IC50 (second compound 1 µM)
active: viability, T/C [6] 7.76% | viability, T/C [24] 7.38% | viability, T/C [30] 4.92% | viability, T/C [35] 0.34% | viability, T/C [36] 0.24%

COc1cc(C2c3cc4c(cc3C(OC3OC5COC(C)OC5C(O)C3O)C3COC(=O)C23)OCO4)cc(OC)c1O (stereo not drawn) + Cc1cnc(CNC(=O)c2c(=O)c3ccc(N4CCCN(C)CC4)nc3n3c2sc2ccccc23)cn1
4440 nM: IC50 (second compound 0.1 µM)
inactive: viability, T/C [4] 94.8% | viability, T/C [37] 90.6% | viability, T/C [6] 85.2% | viability, T/C [38] 70.9% | viability, T/C [39] 54.7% | viability, T/C [40] 46.6% | viability, T/C [10] 84.6% | viability, T/C [41] 78.5% | viability, T/C [12] 79.6% | viability, T/C [42] 73.4% | viability, T/C [43] 56.1% | viability, T/C [44] 34.9% | viability, T/C [16] 79.3% | viability, T/C [45] 85% | viability, T/C [18] 77% | viability, T/C [46] 72.7% | viability, T/C [47] 51.4% | viability, T/C [48] 39.7% | viability, T/C [22] 68.4% | viability, T/C [49] 75.2% | viability, T/C [24] 76.1% | viability, T/C [50] 64% | viability, T/C [51] 60% | viability, T/C [52] 37.5% | viability, T/C [28] 57.1% | viability, T/C [53] 64.5% | viability, T/C [30] 61.6% | viability, T/C [54] 61.1% | viability, T/C [55] 47.1% | viability, T/C [56] 40.7% | viability, T/C [34] 58.6% | viability, T/C [57] 57.3% | viability, T/C [36] 55.2% | viability, T/C [58] 52% | viability, T/C [59] 51.5% | viability, T/C [60] 34.7%
5140 nM: IC50 (second compound 1 µM)
6180 nM: IC50 (second compound 0.0316 µM)
2910 nM: IC50 (second compound 10 µM)
3710 nM: IC50 (second compound 0.316 µM)
2490 nM: IC50 (second compound 3.16 µM)

Nc1ccn(C2OC(CO)C(O)C2(F)F)c(=O)n1 (stereo not drawn) + Cc1cnc(CNC(=O)c2c(=O)c3ccc(N4CCCN(C)CC4)nc3n3c2sc2ccccc23)cn1
334 nM: IC50 (second compound 1 µM)
975 nM: IC50 (second compound 0.0316 µM)
180 nM: IC50 (second compound 10 µM)
inactive: viability, T/C [4] 81.2% | viability, T/C [37] 61.2% | viability, T/C [6] 69.1% | viability, T/C [38] 46.3% | viability, T/C [39] 39.1% | viability, T/C [40] 31.6% | viability, T/C [10] 85.4% | viability, T/C [41] 64.5% | viability, T/C [12] 60.8% | viability, T/C [42] 45.7% | viability, T/C [43] 37.5% | viability, T/C [44] 32.7% | viability, T/C [16] 81.5% | viability, T/C [45] 72.5% | viability, T/C [18] 55.5% | viability, T/C [46] 51.7% | viability, T/C [47] 47.8% | viability, T/C [48] 31.6% | viability, T/C [22] 67.9% | viability, T/C [49] 58.2% | viability, T/C [24] 46.4% | viability, T/C [50] 45.2% | viability, T/C [51] 41.1% | viability, T/C [52] 30.2% | viability, T/C [28] 61.1% | viability, T/C [53] 64% | viability, T/C [30] 48.4% | viability, T/C [54] 43.9% | viability, T/C [55] 43.6% | viability, T/C [56] 30.5% | viability, T/C [34] 57.3% | viability, T/C [57] 48.3% | viability, T/C [36] 48.7% | viability, T/C [58] 40.4% | viability, T/C [59] 41.6% | viability, T/C [60] 27%
1200 nM: IC50 (second compound 0.316 µM)
503 nM: IC50 (second compound 3.16 µM)
679 nM: IC50 (second compound 0.1 µM)
